Publication PMC3131257, “Hypericum lanceolatum (Hypericaceae) as a potential source of new anti-malarial agents: a bioassay-guided fractionation of the stem bark” (Malaria Journal, 2011)
Converted amounts (≈) assume the structure as drawn. Structures can show the parent of a compound that is named as a salt. Where two headings read alike, the source gives them in different places.

Legend:
[1] = test system: multidrug-resistant W2mef strain of P. falciparum; test: microbe, parasite or virus in culture; format: cell-based, Plasmodium falciparum
Procedure: (§1) The W2mef (MRA-615) strain was ordered from the Malaria Research and Reference Reagent Resource Centre (MR4, Manassas, VA, USA), and maintained in continuous culture. The SHF4 field isolate previously isolated from a malaria patient in Buea in the South West region of Cameroon, had been stored in liquid nitrogen at the Biotechnology Unit, University of Buea.
(§2) The field isolate and the laboratory strain of P. falciparum were grown and maintained in culture using the method of Trager and Jensen with some modification. All the chemicals except Albumax II (Gibco; Invitrogen, USA), were ordered from Sigma-Aldrich Inc (Germany). Cultures consisted of a 4% haematocrit suspension of O+ human erythrocytes in RPMI 1640 medium supplemented with a gentamicin solution at 0.01 mg/mL, 25 mM HEPES buffer, 25 mM NaHCO3, and 1% Albumax II. Cultures were fed with a gas mixture consisting of 5% CO2 and incubated at 37°C (CO2 incubator Heraeus, Hera cell 150; USA). The estimation of the parasitaemia as well as parasite visualization before incubation was done using both fluorescence (Acridine Orange) and normal light (Giemsa stain) microscopes.
(§3) The drug sensitivity assay was carried out in 96-well microtitration plates as described by Desjardins et al with some modifications. All stock solutions were sterilized by passing them through a 0.2 μm syringe filter and stored at -20°C until required. Similarly, a 2 μg/mL stock solution of quinine dihydrochloride (Rotexmedica, Trittau, Germany) was prepared and used as positive control. The parasitaemia was measured using the parasite lactate dehydrogenase (pLDH) assay.
(§4) The pLDH assay generates optical density (OD) values at various concentrations of the drug as raw data. OD values from control wells represent the maximum amount of pLDH produced by parasites and OD values from blank wells (containing a 4% suspension of non parasitized red blood cells in malaria culture medium) represented background pLDH activity. A 100% growth value, which corresponds to maximum LDH activity, was obtained by subtracting the mean OD value of blank wells from that of control wells. Likewise, the growth value at each concentration of the drug was obtained by adjusting OD values from drug-treated wells for background pLDH activity (parasite-free red blood cells). These values were then expressed as a percentage of the maximal growth value and plotted against corresponding concentrations of the drug using the software HN-NonLin V1.1 [14] to generate log dose-response curves from which the 50%, 90%, 95% and 99% Inhibitory Concentrations (IC50, IC90, IC95 and IC99 respectively) were obtained. Each product was tested in triplicate in each of the two separate experiments, giving a total of six repeats per product and per concentration tested. The IC50 values obtained from these replicates were pooled and expressed as geometric mean IC50 values and the different means compared among themselves by independent samples t-test using SPSS Statistics 17.0 (Chicago, USA).

[2] = test system: field isolate (SHF4) of Plasmodium falciparum; test: anti-plasmodial drug sensitivity assay, pLDH method, SHF4 field isolate; format: cell-based; conditions: for IC50: Plasmodium falciparum, pure compounds, pLDH assay
Procedure: as §1, §2, §3, §4

[3] = cytotoxicity on LLC-MK2 monkey kidney epithelial cells; conditions: monkey, LLC-MK2 monkey kidney epithelial cells, CC50 on LLC-MK2, pure compounds; five days incubation
Procedure: (§5) The cytotoxicity profiles of the extracts and pure compounds were estimated against LLC-MK2 monkey kidney epithelial cells according to the procedure previously described with some modifications. Cells were cultured under the same conditions as P. falciparum. Cells were distributed in 96-well plates at 20,000 cells per well in 100 μL culture medium, and allowed to attach and become confluent, for 24h. The medium was then removed completely the next day and 100 μL of fresh medium was added to all the wells, followed by 100 μL of crude extract (1000 μg/mL) or pure compounds (200 μg/mL) added in triplicate in row H. A two folds serial dilution was made upward to obtain concentration range of 250 - 3.90 μg/ml (crude extract) or 50 - 0.78 μg/ml (pure compounds), cells at row A serving as control without drug. The plates were incubated for five days at 37°C in 5% CO2 in air. Cells concentration and viability in the presence of extracts or pure compounds were compared with that of control cultures without extracts.

[4] = test system: LLC-MK2 monkey kidney epithelial cells; test: as above; conditions: pure compounds; five days incubation
Procedure: as §5

[5] = test system: CQ-resistant K1 P. falciparum; conditions: betulinic acid from Uapaca nitida root bark; cited from earlier work
[6] = test system: CQ-sensitive T9-96 P. falciparum; conditions: betulinic acid from Uapaca nitida root bark; cited from earlier work
[7] = test system: W2 strain of P. falciparum; parameters: method as in PMID 18239315; conditions: betulinic acid from Psorospermum glaberrimum; cited from earlier work
neural cells = conditions: in vitro; cited from earlier work
P. falciparum = test system: P. falciparum; parameters: method as in PMID 9581528; conditions: growth of P. falciparum; cited from earlier work
K1 = conditions: against K1; cited from earlier work
[8] = Plasmodium falciparum, read-out: IC50 on W2mef, pure compounds, pLDH assay
[9] = Plasmodium falciparum, read-out: IC50 on W2mef, pure compounds, values expressed in μg/mL (Table 2 footnote *, text b34)
[10] = read-out: IC50 on W2mef, pure compounds, pLDH assay

COc1cccc2c(=O)c3ccc(O)cc3oc12 [HLT4, 3-hydroxy-5-methoxyxanthone]
IC50 [1, 8]: 33.84 ± 0.2 µM
anti-plasmodial activity (in words) ([1]; against W2mef): inactive
IC50 [2]: 34.09 ± 0.12 µM
anti-plasmodial activity (in words) ([2]; against the field isolate): inactive
CC50 at 5 days [3]: 10 to 30 µg/mL (≈ 41.3 to 124 µM)
CC50 on LLC-MK2 [4]: 12.50 ± 0.00 µg/mL (≈ 51.6 µM)

COc1ccc2c(=O)c3cccc(O)c3oc2c1 [HLT3, 5-hydroxy-3-methoxyxanthone]
IC50 [1, 8]: < 5 µM
IC50 [1, 9]: < 5 µg/mL
IC50 [1, 10]: 3.26 ± 0.08 µM
IC50 [2]: 1.43 ± 0.48 µM
CC50 at 5 days [3]: > 100 µg/mL

C=C(C)[C@@H]1CC[C@]2(C(=O)O)CC[C@]3(C)[C@H](CC[C@@H]4[C@@]5(C)CC[C@H](O)C(C)(C)[C@@H]5CC[C@]43C)[C@@H]12 [HLT1, 3-hydroxy-lup-20(29)-en-28-oic acid]
IC50 [1, 8]: < 5 µM
IC50 [1, 9]: < 5 µg/mL
IC50 [1, 10]: 4.5 ± 1.35 µM
IC50 [2]: 5.6 ± 0.13 µM
CC50 on LLC-MK2 [4]: 25.00 ± 0.00 µg/mL (≈ 54.7 µM)
IC50 [5]: 19.6 µg/mL (≈ 42.9 µM)
IC50 [6]: 25.9 µg/mL (≈ 56.7 µM)
IC50 [7]: 5.1 µM
cytotoxic activity against neural cells (in words) (neural cells): no significant cytotoxic activity

garciniaxanthone
IC50 (P. falciparum): 0.96 µg/mL

C=C[C@H]1C[N@@]2CC[C@H]1C[C@H]2[C@H](O)c1ccnc2ccc(OC)cc12 [QN, quinine dihydrochloride, reference compound]
IC50 [1, 8]: 0.27 ± 0.04 µM
IC50 ([1]; Plasmodium falciparum, read-out: IC50 on W2mef, sub-extracts and fractions, pLDH assay): 0.27 ± 0.04 µg/mL
IC50 [2]: 0.14 ± 0.05 µM

O=C(c1cc(O)ccc1O)c1c(O)cccc1O [HLT2, 2,2',5,6'-tetrahydroxybenzophenone]
IC50 [1, 8]: 55.1 ± 0.93 µM
IC50 [2]: 13.4 ± 0.16 µM
CC50 at 5 days [3]: > 100 µg/mL

6-hydroxyluteolin-7-O-(1^2-a-rhamnoside
IC50 (K1): 2.13 µg/mL
